In PubChem BioAssay AID624326 (Sanford-Burnham Center for Chemical Genomics, 2012) one finds IC50 data, which are given here for two molecules.

The source made the active and inactive calls.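 How the source made its calls: active means half-inhibitory concentration against fatty acid synthase thioesterase at or below 20 µM; inactive means the rest.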

For the experiment, the target named is Fatty acid synthase (Homo sapiens) (UniProt P49327). Kind of experiment: inhibition of human FAS-TE enzyme activity – biochemical, kinetic fluorescence intensity, dose response (AID 624326). The conditions noted are these: recombinant FAS-TE, OMFH fluorogenic substrate.
Sequence of Fatty acid synthase (Homo sapiens) (P49327 whole entry, looked up): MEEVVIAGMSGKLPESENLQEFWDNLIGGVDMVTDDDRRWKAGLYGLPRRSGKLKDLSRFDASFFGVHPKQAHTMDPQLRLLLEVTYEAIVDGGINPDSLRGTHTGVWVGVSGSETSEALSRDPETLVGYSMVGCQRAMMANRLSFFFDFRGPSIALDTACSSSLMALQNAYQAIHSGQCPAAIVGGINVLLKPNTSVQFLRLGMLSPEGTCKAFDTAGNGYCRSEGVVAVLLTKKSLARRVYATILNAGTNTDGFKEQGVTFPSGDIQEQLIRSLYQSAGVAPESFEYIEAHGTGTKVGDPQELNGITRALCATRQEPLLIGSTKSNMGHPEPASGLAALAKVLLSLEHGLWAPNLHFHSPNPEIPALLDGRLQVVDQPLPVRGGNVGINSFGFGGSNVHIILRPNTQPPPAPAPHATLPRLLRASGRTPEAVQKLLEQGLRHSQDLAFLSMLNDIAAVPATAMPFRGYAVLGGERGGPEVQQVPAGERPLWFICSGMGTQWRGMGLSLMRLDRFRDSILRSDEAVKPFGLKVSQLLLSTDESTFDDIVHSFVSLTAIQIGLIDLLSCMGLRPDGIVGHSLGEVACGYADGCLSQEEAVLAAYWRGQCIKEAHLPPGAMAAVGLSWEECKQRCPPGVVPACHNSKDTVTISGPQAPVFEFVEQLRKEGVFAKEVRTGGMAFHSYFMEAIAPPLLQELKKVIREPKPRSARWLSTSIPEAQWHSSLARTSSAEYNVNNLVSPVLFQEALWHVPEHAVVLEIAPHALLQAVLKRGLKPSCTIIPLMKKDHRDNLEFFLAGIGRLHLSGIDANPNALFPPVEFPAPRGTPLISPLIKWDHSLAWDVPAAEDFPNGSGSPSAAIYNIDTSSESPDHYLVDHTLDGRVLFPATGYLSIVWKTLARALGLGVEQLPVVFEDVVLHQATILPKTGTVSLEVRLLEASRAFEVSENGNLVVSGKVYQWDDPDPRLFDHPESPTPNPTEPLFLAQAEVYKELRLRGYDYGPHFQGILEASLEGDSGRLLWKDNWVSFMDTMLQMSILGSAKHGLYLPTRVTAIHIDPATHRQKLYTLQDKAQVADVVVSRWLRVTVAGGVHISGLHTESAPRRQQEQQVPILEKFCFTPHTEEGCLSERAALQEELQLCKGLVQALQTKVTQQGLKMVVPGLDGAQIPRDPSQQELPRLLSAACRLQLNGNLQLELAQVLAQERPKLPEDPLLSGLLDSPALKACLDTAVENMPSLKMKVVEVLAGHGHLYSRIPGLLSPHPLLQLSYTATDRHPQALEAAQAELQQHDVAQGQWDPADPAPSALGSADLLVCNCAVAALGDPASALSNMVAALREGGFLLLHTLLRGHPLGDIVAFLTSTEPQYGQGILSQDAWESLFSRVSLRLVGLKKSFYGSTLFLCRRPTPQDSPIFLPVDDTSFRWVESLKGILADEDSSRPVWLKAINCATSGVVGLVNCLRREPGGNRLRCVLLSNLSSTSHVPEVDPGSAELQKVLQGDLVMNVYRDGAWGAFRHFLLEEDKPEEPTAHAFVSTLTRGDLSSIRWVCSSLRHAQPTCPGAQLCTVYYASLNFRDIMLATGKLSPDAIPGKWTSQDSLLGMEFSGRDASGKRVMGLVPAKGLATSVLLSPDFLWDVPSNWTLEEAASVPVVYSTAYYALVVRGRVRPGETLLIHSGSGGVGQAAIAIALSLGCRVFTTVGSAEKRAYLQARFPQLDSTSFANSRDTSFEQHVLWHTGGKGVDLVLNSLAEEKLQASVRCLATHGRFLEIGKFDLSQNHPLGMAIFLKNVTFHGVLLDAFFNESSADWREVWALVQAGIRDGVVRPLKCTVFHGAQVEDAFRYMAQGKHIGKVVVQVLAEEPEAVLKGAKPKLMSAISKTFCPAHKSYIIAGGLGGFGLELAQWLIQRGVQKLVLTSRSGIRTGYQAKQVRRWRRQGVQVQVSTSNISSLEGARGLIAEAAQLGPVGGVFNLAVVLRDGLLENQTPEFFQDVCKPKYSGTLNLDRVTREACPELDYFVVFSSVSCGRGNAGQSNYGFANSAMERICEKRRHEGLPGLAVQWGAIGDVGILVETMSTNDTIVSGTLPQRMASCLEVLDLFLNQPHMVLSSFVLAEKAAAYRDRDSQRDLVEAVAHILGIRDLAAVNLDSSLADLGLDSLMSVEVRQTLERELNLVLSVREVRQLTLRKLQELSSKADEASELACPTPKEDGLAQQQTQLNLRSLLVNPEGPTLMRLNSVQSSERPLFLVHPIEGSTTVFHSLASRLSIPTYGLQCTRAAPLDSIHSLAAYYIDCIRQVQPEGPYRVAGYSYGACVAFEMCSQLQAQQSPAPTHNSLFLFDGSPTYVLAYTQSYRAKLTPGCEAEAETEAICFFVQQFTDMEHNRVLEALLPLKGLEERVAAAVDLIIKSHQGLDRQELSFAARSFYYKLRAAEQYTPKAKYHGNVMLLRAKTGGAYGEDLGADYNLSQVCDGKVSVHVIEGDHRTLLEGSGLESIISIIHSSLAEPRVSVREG

For `CCC(C)(C)C1CCC(=NNS(=O)(=O)c2ccc(C)c([N+](=O)[O-])c2)CC1` (configuration not stated), the IC50 (commonly the concentration that inhibits the measured activity by half) is “inactive”.

`CCCCC(=O)Nc1nc(-c2ccc(S(=O)(=O)N3CCOCC3)cc2)cs1`: the 50% inhibitory concentration (IC50) was 206 nM.
